Key:
Assay type in all cases: physicochemical
[1] = LNP size and polydispersity index (PDI) by dynamic light scattering (DLS); conditions: for Size: LNP Lipid:DSPC:Cholesterol:DMG-PEG2k 50:10:38.5:1.5 mol %
[2] = LNP Zeta potential measured using a Zetasizer (Malvern); conditions: for Zeta potential (mV): Table 10, LNP with hEPO mRNA, Lipid:DSPC:Cholesterol:DMG-PEG2k 50:10:38.5:1.5 mol %, N:P ratio 6; for Zeta potential: Table 8, LNP 50:10:38.5:1.5 mol %, hEPO mRNA, N:P 6
[3] = Encapsulation efficiency (EE %) by fluorescence based Ribogreen assay
[4] = Table 10, LNP with hEPO mRNA, Lipid:DSPC:Cholesterol:DMG-PEG2k 50:10:38.5:1.5 mol %, N:P ratio 6, DLS
[5] = Table 10, LNP with hEPO mRNA, Lipid:DSPC:Cholesterol:DMG-PEG2k 50:10:38.5:1.5 mol %, N:P ratio 6, Ribogreen assay
[6] = Table 8, LNP 50:10:38.5:1.5 mol %, hEPO mRNA, N:P 6

Row | SMILES | PDI [1, 6] | Size ([1]; Table 8, hEPO mRNA, N:P 6) | Zeta potential [2] | Encapsulation Efficiency % [3, 6] | PDI [1, 4] | Size (nm) [1, 4] | Zeta potential (mV) [2] | Encapsulation Efficiency % [3, 5]
1 | CCCCCCCCCC(CCCCCCCCC)C(=O)OCCN(CCOC(=O)C(CCCCCCCCC)CCCCCCCCC)C(=O)CCN(C)CC [Compound 917e] | – | – | – | – | 0.222 | 52.5 nm | −4.2 mV | 95.4%
2 | CCCCCCCCCC(CCCCCCCCC)C(=O)OCCN(CCOC(=O)C(CCCCCCCCC)CCCCCCCCC)C(=O)CCN(CC)CC [Compound 917f] | – | – | – | – | 0.314 | 51.5 nm | −11.1 mV | 91.9%
3 | CCCCCCCCCC(CCCCCCCCC)C(=O)OCCN(CCOC(=O)C(CCCCCCCCC)CCCCCCCCC)C(=O)CCN(C)CCC [Compound 917g] | – | – | – | – | 0.281 | 49.2 nm | −10.2 mV | 93.5%
4 | CCCCCCCC/C=C\CCCCCCCC(=O)OCCN(CCOC(=O)C(CCCCCC)CCCCCCCC)C(=O)CCN1CCCCC1 (centres unmarked) [Compound 917h] | – | – | – | – | 0.137 | 89.6 nm | −8.2 mV | 91.4%
5 | CCCCCCCCC(CCCCCC)C(=O)OCCN(CCOC(=O)C(CCCCCC)CCCCCCCC)C(=O)C(C)CNC.Cl (centres unmarked) [Compound 924] | 0.142 | 87.2 nm | −8.7 mV | 99.9% | – | – | – | –
6 | CCCCCCCCC(CCCCCC)C(=O)OCCN(CCOC(=O)C(CCCCCC)CCCCCCCC)C(=O)C(C)CNCC.Cl (centres unmarked) [Compound 925] | 0.146 | 79.6 nm | −6.1 mV | 99.9% | – | – | – | –
7 | CCCCCCCCC(CCCCCC)C(=O)OCCN(CCOC(=O)C(CCCCCC)CCCCCCCC)C(=O)C(C)CNCCC.Cl (centres unmarked) [Compound 928] | 0.177 | 75.5 nm | −11.9 mV | 91.8% | – | – | – | –
8 | CCCCCCCCC(CCCCCC)C(=O)OCCN(CCOC(=O)C(CCCCCC)CCCCCCCC)C(=O)CCCN(C)C (centres unmarked) [Compound 931] | 0.117 | 125.8 nm | −8.457 mV | 99.9% | – | – | – | –
9 | CCCCCCCCCC(CCCCCCCC)C(=O)OCCN(CCOC(=O)C(CCCCCCCC)CCCCCCCCC)C(=O)CCCN(C)C.Cl (centres unmarked) [Compound 933] | 0.301 | 110.9 nm | −12.2 mV | 99.2% | – | – | – | –

More lines, main results first:

Row | PDI [1, 6] | Size ([1]; Table 8, hEPO mRNA, N:P 6) | Zeta potential [2] | Encapsulation Efficiency % [3, 6] | SMILES | PDI [1, 4] | Size (nm) [1, 4] | Zeta potential (mV) [2] | Encapsulation Efficiency % [3, 5]
10 | 0.167 | 111.9 nm | −9.5 mV | 99.9% | CCCCCCCCC(CCCCCC)C(=O)OCCN(CCOC(=O)C(CCCCCC)CCCCCCCC)C(=O)CCCNCC.Cl (centres unmarked) [Compound 935] | – | – | – | –
11 | 0.175 | 110.1 nm | −10.7 mV | 99.9% | CCCCCCCCC(CCCCCC)C(=O)OCCN(CCOC(=O)C(CCCCCC)CCCCCCCC)C(=O)CCCN(C)CC.Cl (centres unmarked) [Compound 936] | – | – | – | –
12 | 0.136 | 144 nm | −9.2 mV | 99.9% | CCCCCCCCC(CCCCCC)C(=O)OCCN(CCOC(=O)C(CCCCCC)CCCCCCCC)C(=O)CCCN(CC)CC.Cl (centres unmarked) [Compound 937] | – | – | – | –
13 | 0.248 | 103.7 nm | −18.3 mV | 99.9% | CCCCCCCCC(CCCCCC)C(=O)OCCN(CCOC(=O)C(CCCCCC)CCCCCCCC)C(=O)CCCN(C)CCC.Cl (centres unmarked) [Compound 938] | – | – | – | –
14 | 0.172 | 103.5 nm | −14.9 mV | 98.5% | CCCCCCCCC(CCCCCC)C(=O)OCCN(CCOC(=O)C(CCCCCC)CCCCCCCC)C(=O)CCCN(C)CCC.Cl (centres unmarked) [Compound 939] | – | – | – | –

Reference: patent publication US20250268826A1, “IONIZABLE LIPIDOID COMPOSITIONS AND THERAPEUTIC USES THEREOF” (Flagship Pioneering Innovations VII, LLC, priority 2023, published 2025)
